What was measured:
rat [1] = conditions: Prenatal developmental toxicity study, wistar, Oral, Water, dose end: 19 GD
mouse = conditions: Subchronic oral toxicity in rodents, b6c3f1, Feed, dose end: 13 week, group: systemic, systemic / organ weight / liver / absolute + systemic / organ weight / liver / relative to body weight + systemic / pathology microscopic / …
rat [2] = conditions: Subchronic oral toxicity in rodents, fischer, Feed, dose end: 13 week, group: systemic
rat [3] = conditions: Prenatal developmental toxicity study, fischer, Oral, Gavage/Intubation, dose end: 15 GD
rat [4] = conditions: Multigenerational reproductive toxicity study, wistar, Oral, Water, dose end: 1 generation
rabbit [5] = conditions: Prenatal developmental toxicity study, new zealand white, Oral, Gavage/Intubation, dose end: 18 GD, group: maternal
rat [6] = conditions: Sub-acute repeat dose toxicity, sprague dawley, Oral, Gavage/Intubation, dose end: 21 day, group: systemic
dog [7] = conditions: Sub-acute repeat dose toxicity, beagle, Oral, Gavage/Intubation, dose end: 15 day, group: systemic
rat [8] = conditions: Prenatal developmental toxicity study; sprague dawley; Oral; Gavage/Intubation; dose end: 18 GD; group: maternal; systemic / in life observation / body weight / body weight + systemic / in life observation / body weight / body weight gain + systemic / in…
rat [9] = conditions: Fertility (Segment I), sprague dawley, Oral, Gavage/Intubation, dose end: 1 generation, group: parental
rat [10] = conditions: Fertility (Segment I), sprague dawley, Oral, Gavage/Intubation, dose end: 1 generation
dog [11] = conditions: Sub-acute repeat dose toxicity, beagle, Oral, Gavage/Intubation, dose end: 5 day, group: systemic
dog [12] = conditions: Subchronic oral toxicity in nonrodent, beagle, Gavage/Intubation, dose end: 90 day, group: systemic, systemic / in life observation / clinical signs / emesis + systemic / in life observation / clinical signs / erythema + systemic / in life …
rabbit [13] = conditions: Prenatal developmental toxicity study, new zealand white, Oral, Gavage/Intubation, dose end: 19 GD, group: maternal
rabbit [14] = conditions: Sub-acute repeat dose toxicity, new zealand white, Oral, Gavage/Intubation, dose end: 5 day, group: systemic
rat [15] = conditions: Subchronic oral toxicity in rodents, sprague dawley, Gavage/Intubation, dose end: 90 day, group: systemic
rat [16] = conditions: Sub-acute repeat dose toxicity, sprague dawley, Oral, Gavage/Intubation, dose end: 36 day, group: systemic
rabbit [17] = conditions: Prenatal developmental toxicity study, Oral, Gavage/Intubation, dose end: 19 GD
[18] = group: developmental, developmental / developmental malformation / bone / incomplete ossification + developmental / developmental malformation / bone / wavy
[19] = group: maternal, reproductive / reproductive performance / pregnancy / pregnancy + systemic / in life observation / body weight / body weight + systemic / in…
[20] = systemic / clinical chemistry / cholesterol / cholesterol
[21] = group: developmental, developmental / developmental malformation / bone / delayed ossification
[22] = group: developmental, developmental / developmental malformation / bone / delayed ossification + developmental / developmental malformation / bone / supernumerary…
[23] = group: maternal, systemic / in life observation / clinical signs / ocular discharge + systemic / in life observation / clinical signs / red or crusty …
[24] = group: offspring, developmental / developmental landmark / eye opening / eye opening + developmental / developmental landmark / incisor eruption / incisor …
[25] = group: offspring, developmental / developmental malformation / bone / kinked
[26] = group: parental, systemic / in life observation / body weight / body weight + systemic / in life observation / body weight / body weight gain + systemic / in…
[27] = group: reproductive, reproductive / reproductive performance / implantations / implantations + reproductive / reproductive performance / resorptions / …
[28] = reproductive / reproductive performance / aborted / aborted + systemic / in life observation / mortality / mortality
[29] = systemic / clinical chemistry / alanine aminotransferase (alt/sgpt) / alanine aminotransferase (alt/sgpt) + systemic / clinical chemistry / …
[30] = systemic / organ weight / liver / relative to body weight
[31] = systemic / clinical chemistry / alanine aminotransferase (alt/sgpt) / alanine aminotransferase (alt/sgpt) + systemic / hematology / platelet…
[32] = systemic / in life observation / body weight / body weight + systemic / clinical chemistry / alanine aminotransferase (alt/sgpt) / alanine …
[33] = systemic / in life observation / body weight / body weight + systemic / in life observation / clinical signs / altered breathing rate + …
[34] = group: maternal, reproductive / reproductive performance / estrous cycle / length
[35] = group: parental, systemic / in life observation / body weight / body weight + systemic / in life observation / clinical signs / [other] + systemic / in life …
[36] = group: parental, systemic / in life observation / clinical signs / altered breathing rate + systemic / in life observation / clinical signs / compulsive …
[37] = systemic / in life observation / body weight / body weight + systemic / in life observation / clinical signs / emesis + systemic / in life …
[38] = systemic / in life observation / clinical signs / salivation + systemic / in life observation / clinical signs / emesis
[39] = systemic / in life observation / clinical signs / dialated pupils + systemic / in life observation / food consumption / food consumption
[40] = systemic / in life observation / body weight / body weight gain + systemic / in life observation / clinical signs / [other] + systemic / in …
[41] = systemic / in life observation / clinical signs / abnormal feces + systemic / in life observation / clinical signs / altered breathing rate
[42] = systemic / clinical chemistry / [other] / [other] + systemic / clinical chemistry / aspartate aminotransferase (ast/sgot) / aspartate …
[43] = systemic / organ weight / liver / absolute + systemic / in life observation / clinical signs / salivation
[44] = systemic / in life observation / body weight / body weight gain + systemic / in life observation / body weight / offspring (pup) weight + …
[45] = group: developmental, systemic / in life observation / body weight / fetal weight
[46] = group: maternal, systemic / in life observation / body weight / body weight + systemic / in life observation / food consumption / food consumption + systemic…

CCCCC(CC)C(=O)O (stereo not given) [2-Ethylhexanoic acid]
LEL (rat [1]; [18]): 100 mg/kg/day
LOAEL (rat [1]; [18]): 100 mg/kg/day
NEL (rat [1]; [18]): < 100 mg/kg/day
NOAEL (rat [1]; [18]): < 100 mg/kg/day
LEL (rat [1]; group: maternal, reproductive / reproductive performance / pregnancy / pregnancy): 300 mg/kg/day
LOAEL (rat [1]; [19]): > 600 mg/kg/day
NEL (rat [1]; [19]): 100 mg/kg/day
NOAEL (rat [1]; [19]): ≥ 600 mg/kg/day
LEL (mouse): 885 mg/kg/day
LOAEL (mouse): 885 mg/kg/day
NEL (mouse): 180 mg/kg/day
NOAEL (mouse): 180 mg/kg/day
LEL (rat [2]; [20]): 61 mg/kg/day
NEL (rat [2]; [20]): < 61 mg/kg/day
LOAEL (rat [2]; systemic / organ weight / liver / relative to body weight + systemic / pathology microscopic / liver / hypertrophy): 303 mg/kg/day
NOAEL (rat [2]; systemic / organ weight / liver / relative to body weight + systemic / pathology microscopic / liver / hypertrophy + systemic / clinical …): 61 mg/kg/day
LEL (rat [3]; [21]): 250 mg/kg/day
LOAEL (rat [3]; [21]): 250 mg/kg/day
NEL (rat [3]; [22]): 100 mg/kg/day
NOAEL (rat [3]; [22]): 100 mg/kg/day
NEL (rat [3]; group: maternal, reproductive / reproductive performance / postimplantation loss / postimplantation loss + reproductive / reproductive performance / …): 250 mg/kg/day
LEL (rat [3]; [23]): 500 mg/kg/day
LOAEL (rat [3]; [23]): 500 mg/kg/day
NOAEL (rat [3]; [23]): 250 mg/kg/day
LOAEL (rat [4]; [24]): > 600 mg/kg/day
NOAEL (rat [4]; [24]): ≥ 600 mg/kg/day
LEL (rat [4]; [25]): 100 mg/kg/day
NEL (rat [4]; [25]): < 100 mg/kg/day
LOAEL (rat [4]; [26]): > 600 mg/kg/day
NEL (rat [4]; [26]): 100 mg/kg/day
NOAEL (rat [4]; [26]): ≥ 600 mg/kg/day
LEL (rat [4]; group: parental, systemic / pathology microscopic / uterus / dilatation + systemic / pathology microscopic / vagina / hyperplasia + systemic / pathology …): 300 mg/kg/day
LEL (rat [4]; [27]): 600 mg/kg/day
LOAEL (rat [4]; [27]): > 600 mg/kg/day
NOAEL (rat [4]; [27]): ≥ 600 mg/kg/day
LEL (rabbit [5]; [28]): 125 mg/kg/day
LOAEL (rabbit [5]; [28]): 125 mg/kg/day
NOAEL (rabbit [5]; reproductive / reproductive performance / aborted / aborted + systemic / in life observation / mortality / mortality + systemic / in life …): 25 mg/kg/day

CNCc1cc(F)ccc1Oc1ccc(Cl)c(Cl)c1
LOAEL (rat [6]; [29]): > 300 mg/kg/day
NOAEL (rat [6]; [29]): ≥ 300 mg/kg/day
LEL (rat [6]; [30]): 10 mg/kg/day
NEL (rat [6]; [30]): < 10 mg/kg/day
LOAEL (dog [7]; [31]): > 60 mg/kg/day
NOAEL (dog [7]; [31]): ≥ 60 mg/kg/day
LEL (dog [7]; [32]): 3 mg/kg/day
NEL (dog [7]; [32]): < 3 mg/kg/day
LEL (rat [8]): 25 mg/kg/day
LOAEL (rat [8]): > 50 mg/kg/day
NOAEL (rat [8]): ≥ 50 mg/kg/day
LOAEL (rat [9]; [33]): > 100 mg/kg/day
NEL (rat [9]; [33]): 10 mg/kg/day
NOAEL (rat [9]; [33]): ≥ 100 mg/kg/day
LEL (rat [9]; systemic / in life observation / clinical signs / salivation + systemic / in life observation / food consumption / food consumption): 30 mg/kg/day
LEL (rat [10]; [34]): 30 mg/kg/day
LOAEL (rat [10]; [34]): > 60 mg/kg/day
NEL (rat [10]; [34]): 10 mg/kg/day
NOAEL (rat [10]; [34]): ≥ 60 mg/kg/day
LOAEL (rat [10]; [35]): > 60 mg/kg/day
NOAEL (rat [10]; [35]): ≥ 60 mg/kg/day
LEL (rat [10]; [36]): 10 mg/kg/day
NEL (rat [10]; [36]): < 10 mg/kg/day
LOAEL (dog [11]; [37]): > 10 mg/kg/day
NOAEL (dog [11]; [37]): ≥ 10 mg/kg/day
LEL (dog [11]; [38]): 3 mg/kg/day
NEL (dog [11]; [38]): < 3 mg/kg/day
LEL (dog [12]): 2 mg/kg/day
LOAEL (dog [12]): > 30 mg/kg/day
NEL (dog [12]): < 2 mg/kg/day
NOAEL (dog [12]): ≥ 30 mg/kg/day
LEL (rabbit [13]; systemic / in life observation / clinical signs / dialated pupils): 10 mg/kg/day
LOAEL (rabbit [13]; [39]): > 30 mg/kg/day
NOAEL (rabbit [13]; [39]): ≥ 30 mg/kg/day
LOAEL (rabbit [14]; [40]): > 100 mg/kg/day
NOAEL (rabbit [14]; [40]): ≥ 100 mg/kg/day
LEL (rabbit [14]; [41]): 10 mg/kg/day
NEL (rabbit [14]; [41]): < 10 mg/kg/day
LOAEL (rat [15]; [42]): > 150 mg/kg/day
NOAEL (rat [15]; [42]): ≥ 150 mg/kg/day
LEL (rat [15]; [43]): 10 mg/kg/day
NEL (rat [15]; [43]): < 10 mg/kg/day

COCCOC[C@H](CC1(C(=O)NC2CCC(C(=O)O)CC2)CCCC1)C(=O)Oc1ccc2c(c1)CCC2 (stereo not given in full) [Candoxatril]
LOAEL (rat [16]; [44]): > 1200 mg/kg/day
NOAEL (rat [16]; [44]): ≥ 1200 mg/kg/day
NEL (rat [16]; systemic / in life observation / clinical signs / hyperactivity): < 120 mg/kg/day
LEL (rabbit [17]; [45]): 1000 mg/kg/day
LOAEL (rabbit [17]; [45]): > 1000 mg/kg/day
NOAEL (rabbit [17]; [45]): ≥ 1000 mg/kg/day
LEL (rabbit [17]; [46]): 1000 mg/kg/day
LOAEL (rabbit [17]; [46]): > 1000 mg/kg/day
NEL (rabbit [17]; [46]): 250 mg/kg/day
NOAEL (rabbit [17]; [46]): ≥ 1000 mg/kg/day
